Among the data in the Deep4Chem optical property database are absorption maximum values, retold here.

The data set can be described thus: solvent given as SMILES.

For the compound `c1cc2cc(c1)c1ccc3ccc4ccc(cc4c3c1)c1ccc3ccc4ccc(cc4c3c1)c1cccc2c1`, where the note is “in Cc1ccccc1”, the absorption maximum stood at 355 nm.
For the compound `Nc1cccc2c1-c1ccccc1C2=O`, the absorption maximum is listed as 427 nm (in C1CCCCC1), 451 nm (in CC#N), 458 nm (in CCO) and 440 nm (in c1ccccc1).
Consider `CC1=CC(C)=[N+]2C1=C(c1ccc(I)cc1)c1c(C)cc(C)n1[B-]21OCCO1`, for which the absorption maximum (in ClC(Cl)Cl) turned out to be 507 nm.
Consider `CCC1=C(C)C2=C(c3c(C)cc(C)nc3-c3cccs3)c3c(C)c(CC)c(C)n3[B-](F)(F)[N+]2=C1C`, for which the absorption maximum is, setting by setting: (in C1CCCCC1) 532 nm; (in C1CCOC1) 532 nm; (in C1COCCO1) 533 nm; (in CC#N) 530 nm; (in CCCCCC) 531 nm; (in CCO) 531 nm. The absorption maximum by setting is: (in CCOC(C)=O) 531 nm; (in CCOCC) 530 nm; (in CN(C)C=O) 532 nm; (in CS(C)=O) 534 nm; (in Cc1ccccc1) 533 nm; (in ClC(Cl)(Cl)Cl) 534 nm. Also, the absorption maximum (in ClC(Cl)Cl) is listed as 535 nm.
Turning to `CCC1=C(C)C2=C(C)c3cc(I)cn3[B-](F)(F)[N+]2=C1C`, the absorption maximum runs as follows: (in C1CCCCC1) 517.5 nm; (in CC(C)=O) 502.5 nm; (in CCO) 506 nm; (in CCOC(C)=O) 504.5 nm; (in CO) 503.5 nm; (in OCC(F)(F)F) 499.5 nm.
For the compound `Cc1ccc(N(c2ccc(C)cc2)c2ccc(-c3cc4c(cc(-c5ccc(N(c6ccc(C)cc6)c6ccc(C)cc6)cc5)c5nsnc54)c4nsnc34)cc2)cc1`, the absorption maximum by setting is: (in Cc1ccccc1) 520 nm; (in ClCCl) 518 nm.
Where the note is “in Cc1ccccc1”, `c1cc(-n2c3ccccc3c3ccccc32)c(-c2nc3ccccn3n2)c(-n2c3ccccc3c3ccccc32)c1` yielded an absorption maximum of 338 nm.
With `COc1cn2cc(-c3ccc(C#N)cc3)[n-][n+]2c1`, where the note is “in ClCCl”, the absorption maximum was 378 nm.
On the same count and under the same terms, then `COc1ccc(-c2cc3c(ccc4sc5ccc6sccc6c5c43)s2)cc1`, with 357 nm.
Still for that read-out and setting: then `O=c1c2ccccc2n(-c2ccc(-c3ccc(N(c4ccccc4)c4ccccc4)cc3)cc2)c2ccccc12`, with 394 nm.
The same measure, in the same setting: as for `COc1ccc(/C=C/c2cc(/C=C/c3ccc(OC)cc3)nc(/C=C/c3ccc(C(F)(F)F)cc3)n2)cc1`, the figure is 370 nm.
Consider `CCC1=C(C)C(=O)n2c1cc1c(C)c(CC)c(C)n1c2=O`, for which the absorption maximum reads like this: (in CC#N) 423 nm; (in CC(C)=O) 422 nm; (in CO) 428 nm; (in CS(C)=O) 428 nm; (in ClC(Cl)Cl) 432 nm; (in c1ccccc1) 428 nm.
In the case of `COc1cc(OC)cc(C2=C3C(C)=C(I)C(/C=C/c4c[nH]c5ccccc45)=[N+]3[B-](F)(F)n3c(/C=C/c4c[nH]c5ccccc45)c(I)c(C)c32)c1`, the absorption maximum is, setting by setting: (in C1CCOC1) 715 nm; (in CS(C)=O) 727 nm; (in ClCCl) 702 nm.
Turning to `c1csc(-c2cnc(-c3cccs3)c3nonc23)c1`, the absorption maximum by setting is: (in C1CCCCC1) 461 nm; (in CC(C)=O) 461 nm; (in CCCCCC) 458 nm; (in CCCO) 466 nm; (in CCO) 460 nm; (in CCOCC) 462 nm. The absorption maximum reads like this: (in CO) 460 nm; (in Cc1ccccc1) 465 nm; (in ClC(Cl)(Cl)Cl) 465 nm; (in ClC(Cl)Cl) 464 nm; (in Nc1ccccc1) 474 nm; (in O=[N+]([O-])c1ccccc1) 476 nm. In addition, the absorption maximum was 471 nm (in OCC(O)CO); 473 nm (in OCc1ccccc1); 477 nm (in c1ccc2ncccc2c1); 465 nm (in c1ccccc1); 472 nm (in c1ccncc1).
Consider `C[Si](C)(C)C#Cc1c2c(=O)c3ccccc3c2c(C#C[Si](C)(C)C)c2c(=O)c3ccccc3c12`, for which the absorption maximum (in ClC(Cl)Cl) turned out to be 524 nm.
Compound `Cc1ccc(-c2ccc(/C=C/c3ccc(C#N)cc3)cn2)nc1` showed an absorption maximum (in CC#N) of 343 nm.
For the compound `CC1(C)C(/C=C/c2cc3ccc(O)cc3oc2=O)=[N+](CCCS(=O)(=O)[O-])c2ccccc21`, the absorption maximum worked out at 623 nm (in CCO), 630 nm (in CS(C)=O) and 555 nm (in O).
For the compound `CCCCCCCCOC(=O)c1cc2ccc3ccccc3c2c(C#N)c1N`, under “in Cc1ccccc1”, the absorption maximum is 435 nm.
`CCOC(=O)c1c(-c2c(Cl)c3ccccc3oc2=O)nn(-c2cccc(C)c2)c1C(=O)OCC` had an absorption maximum (in ClCCl) of 321 nm.
In turn, `CC(C)[Si](C#Cc1c2nc3ccccc3nc2c(C#C[Si](C(C)C)(C(C)C)C(C)C)c2nc3c(ccc4ccccc43)nc12)(C(C)C)C(C)C` had an absorption maximum (in CCCCCC) of 649 nm.
Where the note is “in ClCCl”, `CN(C)c1ccc(-c2ccc(/C=C/c3ccncn3)cc2)cc1` showed an absorption maximum of 386 nm.
On the same count and under the same terms, then `COc1cc2c(cc1OC)C1=C[C@H](c3ccccc3)C3(C(C#N)=C(C#N)N1CC2)c1ccccc1-c1ccccc13`, with 310 nm.
Consider `COC(=O)c1nc(-c2cccc3ccccc23)oc1C`, for which the absorption maximum is, setting by setting: (in C1CCCCC1) 318 nm; (in CC#N) 308 nm; (in CCO) 309 nm; (in CCOC(C)=O) 317 nm.
Under “in ClCCl”, `CCCCCCOc1cc(/C=C/c2cc(OCCCCCC)c(/C=C/c3cc(OCCCCCC)c(C=C4C(=O)c5ccccc5C4=O)cc3OCCCCCC)cc2OCCCCCC)c(OCCCCCC)cc1C=C1C(=O)c2ccccc2C1=O` yielded an absorption maximum of 550 nm.
Compound `C(=C\c1ccnc2ccccc12)/c1c2ccccc2cc2ccccc12` yielded an absorption maximum (in CC1CCCCC1) of 387 nm and an absorption maximum (in CC#N) of 387 nm.
As to `CC1=CC(C)=[N+]2C1=Cc1c(C)cc(C)n1[B-]2(F)F`, the absorption maximum (in CCCCCC) was found to be 508 nm, the absorption maximum (in CO) is recorded as 503 nm and the absorption maximum (in ClCCl) is recorded as 506 nm.
In turn, `Nc1n[n+]([O-])c2cc(F)ccc2[n+]1[O-]` gave an absorption maximum (in CC#N) of 489 nm and an absorption maximum (in O) of 468 nm.
As to `CCC1(CC)c2cc(B(c3c(C)cc(C)cc3C)c3c(C)cc(C)cc3C)ccc2-c2c1c1c(c3c2C(CC)(CC)c2cc(B(c4c(C)cc(C)cc4C)c4c(C)cc(C)cc4C)ccc2-3)C(CC)(CC)c2cc(B(c3c(C)cc(C)cc3C)c3c(C)cc(C)cc3C)ccc2-1`, the absorption maximum is, setting by setting: (in C1CCOC1) 362 nm; (in CC#N) 359 nm; (in CC(C)=O) 360 nm; (in CCCCCC) 362 nm; (in Cc1ccccc1) 364 nm.
`COc1cc2c(cc1-c1ccc(C(F)(F)F)cc1)Cc1c3c(c4c(c1-2)-c1cc(OC)c(-c2ccc(C(F)(F)F)cc2)cc1C4)C(=O)N(CCC(C)C)C3=O` came in with an absorption maximum (in C1CCOC1) of 404 nm.
`CCCC1=Cc2nc1ccc1[nH]c(cc1CCOC)c1nc(ccc3[nH]c2cc3CCC)C(CCOC)=C1` registered an absorption maximum (in Cc1ccccc1) of 638 nm.
In turn, `CC1(C)c2ccccc2N(c2ccc3c(c2)c2ccccc2c2nc4ccccc4nc32)c2ccccc21` came in with an absorption maximum (in Cc1ccccc1) of 382 nm.
Take `Cc1ccc(C)n1-c1ccc(N(C)C)cc1`: the absorption maximum came to 306 nm (in CC#N) and 304 nm (in CCCCCC).
Take `Oc1ccc(-c2nc(-c3ccccc3)c(-c3ccccc3)[nH]2)cc1`: the absorption maximum (in CO) is recorded as 295 nm.
With `c1cc2ccc3ccc4cc3c2cc1c1ccc2ccc3ccc(cc3c2c1)c1ccc2c(c1)c1cc4ccc1[C@]13OCCO[C@]21OCCO3`, the absorption maximum (in Cc1ccccc1) stood at 366 nm.
Under “in ClC(Cl)Cl”, `CC(C)(C)c1ccc(-c2cc3c4c(c2)CCc2cc(-c5ccc(C(C)(C)C)cc5)cc(c2-4)CC3)cc1` returned an absorption maximum of 329.71 nm.
With `CCCCCCN1C(=O)c2cccc3c(-c4ccc(-c5cc(-c6ccccc6)n(-c6ccccc6)n5)s4)ccc(c23)C1=O`, the absorption maximum (in ClCCl) amounted to 400 nm.
In turn, `Nc1ccc2c(c1)C(=O)c1ccc(N)cc1C2=O` returned an absorption maximum (in CC#N) of 438 nm; an absorption maximum (in CC(C)O) of 484 nm; an absorption maximum (in CCO) of 477 nm; an absorption maximum (in CCOC(C)=O) of 433.4 nm; an absorption maximum (in CO) of 474 nm.
In turn, `COc1ccc(-c2nc(-c3ccc(OC)cc3)c(-c3ccc(OC)cc3)[nH]2)cc1` had an absorption maximum (in CO) of 295 nm.
For `Cc1ccc(C2=C3C=C4C(=[N+]3[B-](F)(F)n3c2cc2c3-c3ccccc3C23c2ccccc2-c2ccccc23)c2ccccc2C42c3ccccc3-c3ccccc32)cc1`, the absorption maximum (in C1CCOC1) worked out at 634 nm.
`CCN(CC)c1ccc(-n2c(C)ccc2C)cc1` displayed an absorption maximum (in CC#N) of 304 nm and an absorption maximum (in CCCCCC) of 310 nm.
With `CCOc1ccc2c(-c3nc(-c4ccccc4)no3)cc(=O)oc2c1`, the absorption maximum is given as 388 nm (in CCO) and 392 nm (in ClC(Cl)Cl).
Compound `Fc1c(-n2c3ccccc3c3ccccc32)c(F)c(-n2c3ccccc3c3ccccc32)c(-c2nnc(-c3ccccc3)o2)c1-n1c2ccccc2c2ccccc21` gave an absorption maximum (in Cc1ccccc1) of 345 nm.
For the compound `c1ccc(C2(c3ccccc3)c3ccc4ccc5ccccc5c4c3-c3c2ccc2ccc4ccccc4c32)cc1`, the absorption maximum (in ClCCl) worked out at 408 nm.
On the same count and under the same terms, as for `COc1c2ccccc2c(OC)c2c(C#C[Si](C(C)C)(C(C)C)C(C)C)c3cc4sccc4cc3c(C#C[Si](C(C)C)(C(C)C)C(C)C)c12`, the figure is 639 nm.
`c1cc(-c2ccc3c(c2)CCCO3)ccc1-c1ccc2c(c1)CCCO2`: the absorption maximum (in C1CCCCC1) is given as 295 nm.
As to `F[B-]1(F)n2c(c3cc4ccccc4cc3c2-c2ccccc2)C=C2c3cc4ccccc4cc3C(c3ccccc3)=[N+]21`, the absorption maximum (in C1CCOC1) was 761 nm, the absorption maximum (in CN(C)C=O) is recorded as 764 nm, the absorption maximum (in ClCCl) turned out to be 762 nm and the absorption maximum (in c1ccccc1) turned out to be 765 nm.
